Here are results for one compound from patent publication US20220047596A1, “COMBINATION OF PARP INHIBITOR AND BRD4 INHIBITOR FOR THE TREATMENT OF CANCER” (Board of Regents, The University of Texas System, priority 2018, published 2022).

The subject of assay [1] is HRD gene signature. The assay can be described thus: HRD gene signature score applied to public transcriptional profiling data. As to conditions: human or murine tumors; GEO datasets.
Text: Microarray Analysis and IPA Analysis: Gene expression datasets of GSE29799 (Zuber et al., 2011), GSE66048 (Ambrosini et al., 2015), GSE44929 (Love′ n et al., 2013), GSE85840 (Rhyasen et al., 2016), GSE31365 (Delmore et al., 2011), and GSE43392 (Puissant et al., 2013) were downloaded from Gene Expression Omnibus (GEO) (https://www.ncbi.nlm.nih.gov/geo). Raw data were subjected to intensity normalization using affy package in R (Bioconductor), followed by log transformation and quantile normalization. Normalized data were checked for quality and determined to be free of outliers by analysis using box plots, density plots and MA plots. Differential expression genes after BRD4 inhibition were calculated using a linear model provided by the limma package in R based on the cutoffs: 2 for absolute fold change, 0.05 for p value.
HRD Score Acquisition from HRD Signature HRD signature consisting of 230 differentially expressed genes was obtained as previously described (Peng et al., 2014). Normalized gene expression data (GSE29799, GSE66048, GSE44929, GSE85840, GSE31365, and GSE43392) after BRD4 inhibition were subjected to unsupervised clustering with these 230 genes. HRD scores were determined by calculating the Pearson's correlations between median centered gene expression levels for HRD signature and gene expression levels for a given sample (Peng et al., 2014).
Assay [2] concerns U2OS DR-GFP cells. Briefly: U2OS DR-GFP HR reporter assay. In kind it is cell-based, Human. As to conditions: 100 nM for 24 hr, then I-Sce1 for 48 hr. The text has this:
HR Repair Analysis: U2OS DR-GFP cells contain a single copy of the HR repair reporter substrate DR-GFP, which contains two nonfunctional GFP open reading frames, including one GFP-coding sequence that is interrupted by a recognition site for the I-SceI endonuclease. Expression of I-SceI leads to formation of a DSB in the I-SceI GFP allele, which can be repaired by HR using the nearby GFP sequence lacking the N- and C-termini, thereby producing functional GFP that can be detected by flow cytometry. […] Then, cells were transfected with a plasmid expressing I-SceI (pCBASce) for 48 hr. Cells transfected with an empty vector were used as a negative control. GFP-expressing plasmid (pEGFP-C1) was used for transfection efficiency control. Flow cytometry analysis was performed to detect GFP^+ cells using FACScalibur with CellQuest software (Becton Dickinson). The repair efficiency was scored as the percentage of GFP^+ cells.

The test system of assay [3] is CtIP promoter and enhancer. The assay can be described thus: ChIP-qPCR at CtIP promoter and enhancer. As to conditions: HOC1; 200 nM, 24 hr. In kind it is cell-based, Human. The procedure:
Chromatin Immunoprecipitation (ChIP-qPCR): ChIP assays were performed with EZ-Magna ChIP™ A/G Chromatin Immunoprecipitation Kit (Millipore Corp) as described in manufacturer's instructions. Briefly, cells were crosslinked with 1% formaldehyde. After cell lysis, isolated nuclei were subjected to sonication for chromatin fragmentation. Sheared chromatin was diluted in diluted buffer, and divided into aliquots for immunoprecipitation. Anti-BRD4 antibody (1:50, #13440S, Cell Signaling), anti-H3K27ac antibody (1:100, ab4729, Abcam), anti-H3K4M1 antibody (1:200, ab8895, Abcam), anti-Pol II antibody (1:100, sc-47701, Santa Cruz) or normal Rabbit IgG control (1:200, #2729, Cell Signaling) were added to chromatin samples, followed by overnight incubation at 4° C., with rotation. Antibody-chromatin complexes were captured using magnetic protein A/G beads. Purified DNAs were subjected to quantitative PCR (qPCR). All primers are list in Table 2.
Background: Real-time PCR tracks product formation cycle by cycle.

For assay [4], the system named is HOC1 cells. The assay can be described thus: RPA and RAD51 foci immunofluorescence. The class given is cell-based, Human. The procedure: Immunofluorescence Staining and Microscopy: Briefly, cells were washed with PBS and fixed with 4% paraformaldehyde for 5 min, followed by permeabilization with 0.5% NP-40 and 1% Triton X-100 for 10 min Cells were then blocked with 5% FBS for 30 min and incubated with primary antibody (anti-RAD51, PC130, 1:100; anti-g-H2AX (Ser139), clone JBW301, 1:1000 from Millipore Corp; anti-RPA32, ab2175, 1:500 from Abcam) for 2 hr, followed by secondary antibody incubation for 1 hr at room temperature. Slides were sealed in mounting medium containing DAPI (Vector Laboratories, H1200) for further image acquisition. TE-2000 imaging acquisition system (Nikon) equipped with a 60× objective lens was used to capture images. Stained was quantified by ImageJ.

The subject of assay [5] is HOC1 cells. Briefly: Alkaline comet assay. As to conditions: 200 nM each, 48 hr. The class given is cell-based, Human. How it is done: Alkaline Single-Cell Agarose Gel Electrophoresis (Comet) Assays: Alkaline comet assays were performed with Comet Assay Kit (Trevigen) using manufacturer's instructions. Briefly, cell suspensions were embedded in LM (low melting) Agarose and deposited on comet slides. Slides were incubated for 1 hr at 4° C. in lysis solution, followed by immersing slides in freshly prepared alkaline unwinding solution (pH >13) for 20 min at room temperature in the dark. Electrophoresis was carried out for 30 min at 21 V in electrophoresis solution (pH >13). Slides were then stained with SYBR™ Gold (Thermo Fisher Scientific). Tail DNA content was analyzed with Comet score 1.5 software. DNA strand breakage was expressed as “comet tail moment”. The tail moment was measured for a minimum of 50 cells per sample, and average damage from 3 independent experiments was calculated.

Assay [6] deals with cancer cell lines. Briefly: Viability measurement (PrestoBlue, 96 hr) with CalcuSyn combination index. The class given is cell-based, Human. The procedure:
Viability Measurements: Five thousand cells were seeded into sterile 96-well plates and treated with indicated drug combinations for 96 hr. DMSO was used as a vehicle. PrestoBlue® Cell Viability Reagent (Thermo Fisher Scientific) was used to assess cell viability. Background values from empty wells were subtracted and data normalized to vehicle-treated control. Synergistic effects between both compounds were calculated using the Chou-Talalay equation in CalcuSyn software, which takes into account both potency (IC50) and shape of the dose-effect curve. […], and CI>1 indicates antagonism.

The test system of assay [7] is OVCAR8 and WU-BC3 PDX tumors. The assay can be described thus: IHC of OVCAR8 and WU-BC3 PDX tumors at study termination. Also noted: species or system mice. As to conditions: mouse, in vivo. The procedure:
Immunohistochemical Staining (IHC) Tissues were fixed in 10% formalin overnight and embedded in paraffin. […] paraffin embedded sections were first deparaffinized in xylene. IHC were carried out with EnVision Detection Systems HRP. Rabbit/Mouse (DAB+) kit (Agilent) following manufacturer's instructions. Endogenous peroxidase was blocked by incubation with 0.3% hydrogen peroxide for 15 min. Antigen retrieval was performed by boiling the slides in citrate buffer (10 mM, pH 6.0) in a water bath for […]. Slides were rinsed in PBS Tween 0.05% and blocked for […] with 5% bovine serum albumin (BSA). Slide were incubated overnight at 4° C. with primary antibodies (anti-BRD4,
#13440S, 1:200; anti-CtIP, #9201S, 1:200 from Cell Signaling Technology; anti-RAD51, PC130, 1:100; anti-g-H2AX (Ser139), clone JBW301, 1:500 from Millipore Corp; and anti-pRPA32(S4/8), A300-245A, 1:1000 from Bethyl Laboratories), followed by 1 hr with Labelled Polymer-HRP at room temperature. Negative controls were treated identically, but without primary antibody. Subsequently, slides were incubated with DAB+ Chromogen. Slides were counterstained with hematoxylin. After mounting, slides were observed under microscope and photographed.
OVCAR8 Xenografts: 3×10^6 OVCAR8 cells were injected s.c. into mouse flanks in a 1:1 mix of PBS and Matrigel. […] Tumor volumes were calculated using […]. […]

As for `Cc1sc2c(c1C)C(c1ccc(Cl)cc1)=N[C@@H](CC(=O)OC(C)(C)C)c1nnc(C)n1-2` [JQ1], the HRD score entry in assay [1] is listed as “increased HRD score”. For the same compound, the “HR repair (percentage of GFP+ cells)” value in assay [2] is “attenuated HR repair”. Further, in assay [3], the “BRD4 association with the CtIP promoter and enhancer” value was “decreased”; the “H3K27Ac, H3K4Me1 at the CtIP promoter and enhancer” value is “reduced”; the “association of RNA Pol-II with the CtIP promoter and enhancer” value is “decreased association”. The RAD51 nuclear foci entry in assay [4] (after PARPi or IR, compared with vehicle) is recorded as “decreased RAD51 nuclear foci”. Also, in assay [4] (in response to PARPi or IR), the RPA focus formation result was “severely impaired”. The “DNA damage (comet assay)” value in assay [5] is given as “modestly induced DNA damage”. Also, the “resensitization of PARPi-resistant cells to PARPi” value in assay [6] (A2780CP_R, OAW42_R and OC316_R) was “resensitized”. Also, the “PARPi resistance mediated by 53BP1 knockdown” value in assay [6] (BRCA1 knockdown MCF10A, BRCA1 mutant UWB1.289 and COV362 cells) was “reversed resistance”. In assay [7], the “CtIP and pRPA32 (S4/8) (IHC)” value is reported as “decreased”; the “gH2AX (IHC)” value was “increased”.
